{"source": "patent US6440938B1", "about": "“Prevention and/or treatment of allergic conditions” (The Victoria University of Manchester, priority 1997, dated 2002)", "molecules": {"B1": {"name": "SBTI: serine proteinase inhibitor; abbreviation not expanded in the patent (protein, UniProt P01070 25-205, looked up)", "Trypsin inhibitor A": "DFVLDNEGNPLENGGTYYILSDITAFGGIRAAPTGNERCPLTVVQSRNELDKGIGTIISSPYRIRFIAEGHPLSLKFDSFAVIMLCVGIPTEWSVVEDLPEGPAVKIGENKDAMDGWFRLERVSDDEFNNYKLVFCPQQAEDDKCGDIGISIDHDDGTRRLVVSKNKPLVVQFQKLDKESL"}}, "key": {"[1]": {"tested_on": "MDCK cell monolayers", "test": "Mannitol permeability of MDCK cell monolayers exposed to HDM proteinase fractions", "type": "cell-based, canine", "details": "for effect of inhibitor alone on intrinsic epithelial permeability: inhibitor per se, no proteinase fraction (FIG. 3); for inhibition of the action of the serine proteinase fraction on mannitol permeability: AEBSF 100μM, fraction 127 azocoll units ml^−1, 18 h (FIG. 3b)", "method": "(§1) Measurements of mannitol clearance were performed on confluent cell monolayers that had been propagated on 0.4μm pore diameter Costar Transwell™ inserts coated with an ungelled ultra-thin undercoat of Madrigel. Coating was achieved by addition of 250μl aliquots of Matrigel (diluted 1:500 v/v in EMEM) to the interior of the insert followed by ambient incubation for 60 min under aseptic conditions. The solution was then aspirated and the inserts gently washed with medium before the addition of a confluent density of cell suspension.\n(§2) Cells (2-5×10^5 per cm^2 growth area) were plated onto Matrigel-coated inserts. We use the term ‘insert’ as meaning the filter unit containing the cells and the term ‘well’ as referring to the cavities of the tissue culture plate. To monitor growth and integrity, inserts were taken at random, washed gently in PBS and stained under subdued illumination with acridine orange and ethidium bromide (1mg ml^−1 each in PBS). Inserts were examined by fluorescence microscopy and were used only when confluence with high viability was attained.\n(§3) At confluence, the medium was aspirated from the wells and replaced with serum- and bicarbonate-free EMEM buffered with 20 mM HEPES and containing 2 mM L-glutamine. The medium from the inserts was then gently removed and replaced with 300μl of serum-free EMEM containing [^14C]-mannitol (1μCi ml^−1 and 1 mg ml^−1 unlabelled mannitol in HEPES-buffered medium). The Transwell™ plates were then equilibrated for 30 min at 37° C. on a Luckham R100 orbital shaker. Triplicate 100μl aliquots of the unused labelled mannitol solution were sampled and their radioactivity content determined by liquid scintillation spectrometry (Beckman LS6000IC) following addition of 5 ml Opti-Fluor.\n(§4) After the equilibration period, the inserts were placed in fresh wells containing 1 ml of serum-free HEPES buffered EMEM and incubated at 37° C. with continuous gentle shaking. The medium from the original wells was retained and its radioactivity content determined after the addition of 10 ml Opti-Fluor. […] At timed intervals, 20μl aliquots of the basolateral bathing fluid were removed and the amount of ^14C mannitol quantified as described above for the calculation of clearance volume.\nClearance estimates were made over 3-5h and were calculated according to the relationship: [formula]\n(§5) Under conditions where diffusion is the sole means of transepithelial movement of the solute, dVprobe/dt approximates closely to the permeability-surface area product thus allowing estimation of the permeability of mannitol in the composite system of cells, filter, unstirred layers and protein coating (Pt). Epithelial permeability can be calculated from the measured variable by considering the Matrigel-coated filter and unstirred layers as a system of series permeabilities. Thus: [formula]\nUnstirred layer thicknesses are independent of membrane permeability under ideal conditions thus P3 in equations (3) and (4) are identical. Subtracting equations (2) and (3) thus permits the calculation of the permeability of the epithelial monolayer (5). [formula]\nAnalysis of variance was performed after log transformation of the permeability data and probability values for the different treatments assigned using the least significant difference test. Data are presented as the geometric mean values with indicated standard errors of n experimental observations. Probability levels of P<0.05 were considered statistically significant."}, "[2]": {"biological_target": "T1, HDM cysteine proteinase fraction (50% precipitate) (Dermatophagoides pteronyssinus, UniProt P08176)", "T1 construct": "tissue Commonwealth Serum Laboratory, Parkville, Australia; host or cells: spent culture medium of D. pteronyssinus, 50% saturated ammonium sulphate pellet", "T1 sequence (P08176 99-320)": "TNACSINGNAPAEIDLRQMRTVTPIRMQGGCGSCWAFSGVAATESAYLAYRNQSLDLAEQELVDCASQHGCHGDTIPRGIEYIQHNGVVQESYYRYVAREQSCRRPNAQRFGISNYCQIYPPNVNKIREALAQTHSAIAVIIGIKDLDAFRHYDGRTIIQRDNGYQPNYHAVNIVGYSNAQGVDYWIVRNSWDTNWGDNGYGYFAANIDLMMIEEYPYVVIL", "test": "Enzyme degradation of chromogenic substrates by the 50% ammonium sulphate precipitate", "type": "biochemical, D. pteronyssinus", "details": "data not shown", "description": "HDM proteinase allergens have not yet been prepared in catalytically competent form by recombinant cellular expression of the mature enzyme protein. For convenience, and to enable future large scale screening of potential inhibitors in the absence of catalytically active recombinant proteins, we sought to separate the cysteine and serine proteinase activity by simple biochemical fractionation of spent medium in which HDM had been grown. During culture the HDM release allergens into the medium resulting in the accumulation of proteins suitable for purification. Spent medium from cultures of D. pteronyssinus (Commonwealth Serum Laboratory, Parkville, Australia) was dissolved in 5 volumes of phosphate buffered saline and then centrifuged at 48,400×g and 4° C. for 20 min. Ammonium sulphate was added gradually to the stirred supernatant at 4° C. to achieve a 50% saturated solution. After centrifugation (48,400×g, 20 min, 4° C.) the pellet, found by enzymatic assay to be enriched in cysteine proteinase activity, was redissolved in a minimum volume of distilled water. […] Protein content of the extracts was measured using the […] technique with serum albumin as standard (Smith et al, 1985). Proteinase activity was measured using the Azocoll degradation assay as described elsewhere (Herbert et al., 1995; Chavira et al., 1984). […]"}, "[3]": {"tested_on": "intercellular junctions of MDCK cells (ZO-1, desmoplakin)", "test": "Immunocytochemical visualization of intercellular junctions (ZO-1, desmoplakin)", "type": "cell-based, canine", "method": "To study the effects of proteinases and inhibitors on intercellular junctions, MDCK cells were cultured on coverslips and treated with the appropriate proteinase and/or inhibitor for the desired time period. The cells were fixed in ice-cold methanol before binding of rat anti-ZO-1 (mAb R40.76) (Stevenson et al., 1986; Anderson et al., 1988) and mouse anti-desmoplakin (mAb 11-5F) (Parrish et al., 1987). Indirect fluorescent antibody staining was performed using FITC- and TRITC-conjugated second antibodies. Microscopy was carried out using a Zeiss Axiovert microscope with x40 magnification oil immersion Fluar objective. Specimens were illuminated using excitation and emission filter sets for FITC and TRITC. Cells were photographed as described above."}, "[4]": {"tested_on": "Calu-3 cells", "test": "DNA fragmentation (agarose gel), Calu-3 cells", "type": "cell-based, human", "details": "BB-250 5μM, E-64 10μM; for inhibition of cysteine proteinase fraction-induced DNA fragmentation: fraction 80 azocoll units ml^−1 (FIG. 7b)", "method": "Cells were plated on 60×15 mm petri dishes and grown for 2-4 days in serum-containing EMEM under tissue culture conditions in a 5% CO2 atmosphere. Cells were then exposed to treatments in serum-free EMEM containing 20 mM HEPES whilst under aerobic incubation at 37° C. At defined time points, cells were harvested with a scraper and pooled with detached cells in the supernatant. Cells were centrifuged at 550×g for 5 min and their DNA extracted (Nucleon II, Scotlab, Coatbridge, Stratchclyde). The extracted DNA was resuspended in 100μl TE buffer (10 mM Tris-HCL and 1 mM Na2EDTA) overnight at room temperature and its purity determined spectrophotometrically. Equal amounts of DNA were applied in 4:1 ratio with sample buffer (0.25% bromophenol blue and 40% w/v sucrose in water) to each lane of 2% (w/v) agarose gels and electrophoresis performed at 50V for 2-3h in TAE buffer (0.04M Tris-acetate and 0.001M EDTA). Bands of DNA in the gels (which had ethidium bromide incorporated into them) were visualized by ultra-violet light."}, "[5]": {"tested_on": "ICE/ced-3 caspase family", "details": "literature; cited from earlier work"}, "[6]": {"tested_on": "Calu-3 cell monolayers", "test": "Mannitol permeability of Calu-3 cell monolayers exposed to HDM proteinase fractions", "type": "cell-based, human", "details": "for inhibition of the permeability change caused by the serine proteinase fraction: E-64 10μM, fraction 94 azocoll units ml^−1, 18 h (FIG. 4b); for mannitol permeability: P<0.05, n=5", "method": "as §1, §2, §3, §4\nParacellular permeability of mannitol was determined in accordance with the procedure described in our copending U.K. Patent Application No. 9715058 and was calculated from measurements of clearance volume at defined time points. Clearance estimates were made over 3-5h and were calculated according to the relationship: [formula]\nas §5\nUnstirred layer thicknesses are independent of membrane permeability under ideal conditions thus P3 in equations (3) and (4) are identical. Subtracting equations (2) and (3) thus permits the calculation of the permeability of the epithelial monolayer (5). [formula] […]"}, "[7]": {"biological_target": "T2, Der p 1 (Dermatophagoides pteronyssinus, UniProt P08176)", "T2 sequence (P08176 99-320)": "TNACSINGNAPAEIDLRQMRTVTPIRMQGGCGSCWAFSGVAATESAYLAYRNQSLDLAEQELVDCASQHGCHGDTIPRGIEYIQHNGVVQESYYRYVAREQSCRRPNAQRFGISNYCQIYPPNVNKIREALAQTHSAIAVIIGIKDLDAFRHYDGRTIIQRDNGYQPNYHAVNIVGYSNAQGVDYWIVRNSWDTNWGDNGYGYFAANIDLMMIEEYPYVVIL", "details": "literature (Herbert et al. 1995; Hewitt et al. 1995, 1997); cited from earlier work"}}}
{"molecule": "CC(C)C[C@H](NC(=O)[C@H]1O[C@@H]1C(=O)O)C(=O)NCCCCN=C(N)N", "note": "(relative stereo) [E-64, L-trans-epoxysuccinyl-leucylamido-(4-guanidino)-butane]", "values": [{"measurement": "inhibition of the effect of the cysteine proteinase fraction on mannitol permeability", "setting": "[1]; E-64 10μM, fraction 80 azocoll units ml^−1, 18 h (FIG. 3a)", "value": "attenuated"}, {"measurement": "effect of inhibitor alone on intrinsic epithelial permeability", "setting": "[1]", "value": "no observable effect"}, {"measurement": "catalytic activity of the 50% precipitate", "setting": "[2]", "value": "inhibitable"}, {"measurement": "inhibition of cysteine proteinase fraction-dependent changes in ZO-1/desmoplakin staining", "setting": "[3]; E-64 10μM, fraction 80 azocoll units ml^−1", "value": "inhibited"}, {"measurement": "inhibition of cysteine proteinase fraction-induced DNA fragmentation", "setting": "[4]", "value": "inhibited"}, {"measurement": "sensitivity of ICE/ced-3 caspases to the inhibitor", "setting": "[5]", "value": "insensitive"}, {"measurement": "inhibition of the permeability change caused by the serine proteinase fraction", "setting": "[6]; Calu-3", "value": "did not inhibit"}, {"measurement": "mannitol permeability", "setting": "[6]; Calu-3 treated with cysteine proteinase fraction plus E-64", "value": "4.84±0.32 ×10^−6 cm s^−1"}, {"measurement": "inhibition of Der p 1 activity / effects", "setting": "[7]", "value": "sensitive to inhibition"}]}
{"molecule": "N=C(N)c1ccc(CS(=O)(=O)F)cc1", "note": "[APMSF]", "values": [{"measurement": "inhibition of Der p 1 activity / effects", "setting": "[7]", "value": "reported to be inhibited"}]}
{"molecule": "CNC(=O)[C@H](Cc1ccccc1)NC(=O)[C@H](CC(C)C)[C@H](CS(=O)(=O)c1cccs1)C(=O)NO", "note": "[BB-250, [4-(N-hydroxyamino)-2R-isobutyl-3S-(thiophen-2-yl-sulphonylmethyl)succinyl]-L-phenylalanine-N-methylamide]", "values": [{"measurement": "inhibition of cysteine proteinase fraction-induced DNA fragmentation", "setting": "[4]", "value": "attenuated"}, {"measurement": "inhibition of serine proteinase fraction-induced DNA fragmentation", "setting": "[4]; fraction 94 azocoll units ml^−1 (FIG. 7b)", "value": "attenuated"}]}
{"molecule": "Cl.NCCc1ccc(S(=O)(=O)F)cc1", "note": "[AEBSF, 4-(2-aminoethyl)-benzenesulphonyl fluoride hydrochloride]", "values": [{"measurement": "inhibition of the action of the serine proteinase fraction on mannitol permeability", "setting": "[1]", "value": "inhibited"}, {"measurement": "effect of inhibitor alone on intrinsic epithelial permeability", "setting": "[1]", "value": "Neither inhibitor per se exerted any observable effect"}, {"measurement": "inhibition of serine proteinase fraction-dependent changes in ZO-1/desmoplakin staining", "setting": "[3]; AEBSF 100μM, fraction 94 azocoll units ml^−1", "value": "inhibited"}, {"measurement": "inhibition of the action of the cysteine proteinase fraction on mannitol permeability", "setting": "[6]; Calu-3, AEBSF 100μM, fraction 80 azocoll units ml^−1, 18 h (FIG. 4a)", "value": "failed to inhibit"}, {"measurement": "inhibition of the permeability change caused by the serine proteinase fraction", "setting": "[6]; Calu-3", "value": "ablated"}, {"measurement": "mannitol permeability", "setting": "[6]; Calu-3 treated with serine proteinase fraction plus AEBSF", "value": "10.20±0.01 ×10−6 cm s^−1"}]}
{"molecule": "B1", "values": [{"measurement": "inhibition of the action of the serine proteinase fraction on mannitol permeability", "setting": "[1]", "value": "less effectively"}, {"measurement": "effect of inhibitor alone on intrinsic epithelial permeability", "setting": "[1]", "value": "Neither inhibitor per se exerted any observable effect"}]}
